Patent US20250339569A1, “CARBONIC ANHYDRASE IX LIGANDS” (priority 2021, published 2025)
Starred links: 1 amine or outer side, 2 acyl side, 3 side chain; linkers in the order of their positions; H or OH if unused. Positions of bridges follow the written chain, without caps; N, C: chain ends. Non-standard residues stand in square brackets, D forms with d. Residues, ends and D or L forms follow the SMILES beside them. *: point of attachment. NH(CH2)3NH(O2Oc(DOTA)) = O=C(O)CN1CCN(CC(=O)O)CCN(CC(=O)NCCOCCOCC(=O)NCCCN*)CCN(CC(=O)O)CC1; Phe(3-NHCO(CH2)3SO2NH2) = N[C@@H](Cc1cccc(NC(=O)CCCS(N)(=O)=O)c1)C(=O)O; X63 = O=C1CC[C@@H](C(=O)Nc2cccc(C[C@H](N[*:1])C(=O)[*:2])c2)N1; X62 = O=C(Nc1cccc(C[C@H](N[*:1])C(=O)[*:2])c1)c1c[nH]cn1; DOTA = O=C(O)CN1CCN(CC(=O)O)CCN(CC(=O)*)CCN(CC(=O)O)CC1; Trp(5-Cl) = N[C@@H](Cc1c[nH]c2ccc(Cl)cc12)C(=O)O; Pyridine(2,6-diCH2) = c1cc(C[*:1])nc(C[*:2])c1; Dip = N[C@H](C(=O)O)C(c1ccccc1)c1ccccc1; Phe(4-NH2) = Nc1ccc(C[C@H](N)C(=O)O)cc1; mXylylene = c1cc(C[*:1])cc(C[*:2])c1; X49 = N#Cc1ccc(N2CCCN(*)CC2)c(F)c1; Orn(Me2) = CN(C)CCC[C@H](N)C(=O)O; X2 = O=C(CN1CCC(N[*:1])CC1)[*:2]; tBuAla = CC(C)(C)C[C@H](N)C(=O)O; X1 = O=C(CN1CCN([*:1])CC1)[*:2]; Isovaleryl = CC(C)CC(=O)*; X67 = CS(=O)(=O)CC(=O)*; Propionyl = CCC(=O)*; Bz = O=C(c1ccccc1)*; Sar = CNCC(=O)O

biological target: T1, CAIX-expressing human HT-29 colorectal cancer cells (Homo sapiens, UniProt Q16790); test: FACS binding assay (IC50 determination, competition with tracer 3BP-2776 or 3BP-4149); settings: not given
T1 construct: CAIX-expressing human HT-29 colorectal cancer cells; host or cells: HT-29 human colorectal cancer cells
Method in brief: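 HT-29 cells in FACS buffer (PBS, 1% FCS) at 500.000 cells/ml were exposed to compounds competing with a labelled tracer, with biotinylated compounds detected by 1 μg/mL APC-streptavidin for 30 min on ice. APC/Cy5 median fluorescence was read by flow cytometry and IC50 derived by 4PL fit.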

| SMILES | IC50 [nM] |
| --- | --- |
| CC(C)C[C@@H]1NC(=O)[C@H](Cc2c[nH]c3ccccc23)NC(=O)[C@H](CC(=O)O)NC(=O)CNC(=O)[C@H](CCC(=O)O)NC(=O)[C@@H](NC(=O)[C@H](Cc2ccc(O)cc2)NC(=O)[C@@H](NC(=O)c2ccccc2)C(C)C)CSCc2cccc(c2)CSC[C@@H](C(N)=O)NC(=O)[C@H](CCC(N)=O)NC(=O)[C@H](Cc2c[nH]c3ccccc23)NC(=O)[C@H]([C@@H](C)O)NC1=O [3BP-3108] (Bz-VYCEGDWLTWQC-NH2; linker 3-12 via mXylylene) | < 10 |

same assay, conditions: FACS binding assay, HT-29 cells, competition with tracer 3BP-2776 (10 nM, biotin-labeled), 4° C., 1 hour; read-out: pIC50 category (activity) (converted)

| IC50 [nM] | SMILES |
| --- | --- |
| 10 to 79.4 | CC(C)C[C@@H]1NC(=O)[C@H](Cc2cccc(NC(=O)[C@@H]3CCC(=O)N3)c2)NC(=O)[C@H](CC(=O)O)NC(=O)[C@H]2CCCN2C(=O)[C@H](CCC(=O)O)NC(=O)[C@@H](NC(=O)[C@H](Cc2ccc(O)cc2)NC(=O)[C@@H](NC(=O)CN2CCC(NC(=O)CN3CCN(CC(=O)O)CCN(CC(=O)O)CCN(CC(=O)O)CC3)CC2)C(C)C)CSCc2cccc(c2)CSC[C@@H](C(N)=O)NC(=O)[C@H](CO)NC(=O)[C@H](Cc2c[nH]c3ccccc23)NC(=O)[C@H]([C@@H](C)O)NC1=O [3BP-4241] ({DOTA}-[X2]VYCE[dP]D[X63]LTWSC-NH2; linker 4-13 via mXylylene) |
| 10 to 79.4 | CC(C)C[C@@H]1NC(=O)[C@H](Cc2c[nH]c3ccccc23)NC(=O)[C@H](CC(=O)O)NC(=O)[C@H]2CCCN2C(=O)[C@H](CCC(=O)O)NC(=O)[C@@H](NC(=O)[C@H](Cc2ccc(O)cc2)NC(=O)[C@@H](NC(=O)CN2CCC(NC(=O)CN3CCN(CC(=O)O)CCN(CC(=O)O)CCN(CC(=O)O)CC3)CC2)C(C)C)CSCc2cccc(n2)CSC[C@@H](C(N)=O)NC(=O)[C@H](CO)NC(=O)[C@H](Cc2c[nH]c3ccccc23)NC(=O)[C@H]([C@@H](C)O)NC1=O [3BP-4140] ({DOTA}-[X2]VYCE[dP]DWLTWSC-NH2; linker 4-13 via Pyridine(2,6-diCH2)) |
| 10 to 79.4 | CC(C)C[C@@H]1NC(=O)[C@H](Cc2cccc(NC(=O)c3c[nH]cn3)c2)NC(=O)[C@H](CC(=O)O)NC(=O)[C@H]2CCCN2C(=O)[C@H](CCC(=O)O)NC(=O)[C@@H](NC(=O)[C@H](Cc2ccc(O)cc2)NC(=O)[C@@H](NC(=O)CN2CCC(NC(=O)CN3CCN(CC(=O)O)CCN(CC(=O)O)CCN(CC(=O)O)CC3)CC2)C(C)C)CSCc2cccc(c2)CSC[C@@H](C(N)=O)NC(=O)[C@H](CO)NC(=O)[C@H](Cc2c[nH]c3ccccc23)NC(=O)[C@H]([C@@H](C)O)NC1=O [3BP-4240] ({DOTA}-[X2]VYCE[dP]D[X62]LTWSC-NH2; linker 4-13 via mXylylene) |
| 10 to 79.4 | CC(C)C[C@@H]1NC(=O)[C@H](Cc2c[nH]c3ccccc23)NC(=O)[C@H](CCCN(C)C)NC(=O)[C@H]2CCCN2C(=O)[C@H](CCC(=O)O)NC(=O)[C@@H](NC(=O)[C@H](Cc2ccc(O)cc2)NC(=O)[C@@H](NC(=O)CN2CCC(NC(=O)CN3CCN(CC(=O)O)CCN(CC(=O)O)CCN(CC(=O)O)CC3)CC2)C(C)C)CSCc2cccc(c2)CSC[C@@H](C(N)=O)NC(=O)[C@H](CO)NC(=O)[C@H](Cc2c[nH]c3ccccc23)NC(=O)[C@H]([C@@H](C)O)NC1=O [3BP-4098] ({DOTA}-[X2]VYCE[dP][Orn(Me2)]WLTWSC-NH2; linker 4-13 via mXylylene) |

Further lines, the compound ahead of its results:

| SMILES | IC50 [nM] |
| --- | --- |
| CC(C)C[C@@H]1NC(=O)[C@H](C(c2ccccc2)c2ccccc2)NC(=O)[C@H](CC(=O)O)NC(=O)[C@H]2CCCN2C(=O)[C@H](CCC(=O)O)NC(=O)[C@@H](NC(=O)[C@H](Cc2ccc(O)cc2)NC(=O)[C@@H](NC(=O)CN2CCC(NC(=O)CN3CCN(CC(=O)O)CCN(CC(=O)O)CCN(CC(=O)O)CC3)CC2)C(C)C)CSCc2cccc(c2)CSC[C@@H](C(N)=O)NC(=O)[C@H](CO)NC(=O)[C@H](Cc2c[nH]c3ccccc23)NC(=O)[C@H]([C@@H](C)O)NC1=O [3BP-4132] ({DOTA}-[X2]VYCE[dP]D[Dip]LTWSC-NH2; linker 4-13 via mXylylene) | < 10 |
| C[C@@H](O)[C@@H]1NC(=O)[C@H](CC(C)(C)C)NC(=O)[C@H](Cc2cccc(NC(=O)CCCS(N)(=O)=O)c2)NC(=O)[C@H](CC(=O)O)NC(=O)[C@H]2CCCN2C(=O)[C@H](CCC(=O)O)NC(=O)[C@@H](NC(=O)[C@H](Cc2ccc(O)cc2)NC(=O)CN2CCN(C(=O)CN3CCN(CC(=O)O)CCN(CC(=O)O)CCN(CC(=O)O)CC3)CC2)CSCc2cccc(c2)CSC[C@@H](C(N)=O)NC(=O)[C@H](CO)NC(=O)[C@H](Cc2c[nH]c3ccccc23)NC1=O [3BP-4449] ({DOTA}-[X1]YCE[dP]D[Phe(3-NHCO(CH2)3SO2NH2)][tBuAla]TWSC-NH2; linker 3-12 via mXylylene) | < 10 |

same assay, conditions: FACS binding assay, HT-29 cells, competition with tracer 3BP-4149 (3 nM, Cy5-labeled), 4° C., 1 hour; read-out: pIC50 category (activity) (converted)

| SMILES | IC50 [nM] |
| --- | --- |
| CC(C)C[C@@H]1NC(=O)[C@H](Cc2c[nH]c3ccccc23)NC(=O)[C@H](CCC(=O)N2CCCN(c3ccc(C#N)cc3F)CC2)NC(=O)[C@H]2CCCN2C(=O)[C@H](CCC(=O)O)NC(=O)[C@@H](NC(=O)[C@H](Cc2ccc(O)cc2)NC(=O)[C@@H](NC(=O)CN2CCC(NC(=O)CN3CCN(CC(=O)O)CCN(CC(=O)O)CCN(CC(=O)O)CC3)CC2)C(C)C)CSCc2cccc(c2)CSC[C@@H](C(N)=O)NC(=O)[C@H](CO)NC(=O)[C@H](Cc2c[nH]c3ccccc23)NC(=O)[C@H]([C@@H](C)O)NC1=O [3BP-4389] ({DOTA}-[X2]VYCE[dP]E(X49)WLTWSC-NH2; linker 4-13 via mXylylene) | 10 to 79.4 |
| CCC(=O)Nc1ccc(C[C@@H]2NC(=O)[C@H](CC(=O)O)NC(=O)[C@H]3CCCN3C(=O)[C@H](CCC(=O)O)NC(=O)[C@@H](NC(=O)[C@H](Cc3ccc(O)cc3)NC(=O)[C@@H](NC(=O)CN3CCC(NC(=O)CN4CCN(CC(=O)O)CCN(CC(=O)O)CCN(CC(=O)O)CC4)CC3)C(C)C)CSCc3cccc(c3)CSC[C@@H](C(N)=O)NC(=O)[C@H](CO)NC(=O)[C@H](Cc3c[nH]c4ccccc34)NC(=O)[C@H]([C@@H](C)O)NC(=O)[C@H](CC(C)C)NC2=O)cc1 [3BP-4347] ({DOTA}-[X2]VYCE[dP]D[Phe(4-NH2)](Propionyl)LTWSC-NH2; linker 4-13 via mXylylene) | 100 to 794 |
| CC(C)C[C@@H]1NC(=O)[C@H](Cc2ccc(NC(=O)CS(C)(=O)=O)cc2)NC(=O)[C@H](CC(=O)O)NC(=O)[C@H]2CCCN2C(=O)[C@H](CCC(=O)O)NC(=O)[C@@H](NC(=O)[C@H](Cc2ccc(O)cc2)NC(=O)[C@@H](NC(=O)CN2CCC(NC(=O)CN3CCN(CC(=O)O)CCN(CC(=O)O)CCN(CC(=O)O)CC3)CC2)C(C)C)CSCc2cccc(c2)CSC[C@@H](C(N)=O)NC(=O)[C@H](CO)NC(=O)[C@H](Cc2c[nH]c3ccccc23)NC(=O)[C@H]([C@@H](C)O)NC1=O [3BP-4360] ({DOTA}-[X2]VYCE[dP]D[Phe(4-NH2)](X67)LTWSC-NH2; linker 4-13 via mXylylene) | 100 to 794 |

same assay, conditions: FACS competition on HT-29 cells, Tracer ID 3BP-2776 (10 nM, biotin-labeled), 4° C., 1 hour; read-out: pIC50 category (activity) (converted)

| SMILES | IC50 [nM] |
| --- | --- |
| CC(=O)N[C@@H](CO)C(=O)N[C@@H](Cc1ccc(O)cc1)C(=O)N[C@H]1CSCc2cccc(c2)CSC[C@@H](C(N)=O)NC(=O)[C@H](CO)NC(=O)[C@H](Cc2c[nH]c3ccccc23)NC(=O)[C@H]([C@@H](C)O)NC(=O)[C@H](CC(C)C)NC(=O)[C@H](Cc2c[nH]c3ccccc23)NC(=O)[C@H](CC(=O)O)NC(=O)[C@H]2CCCN2C(=O)[C@H](CCC(=O)O)NC1=O [3BP-3566] (Ac-SYCE[dP]DWLTWSC-NH2; linker 3-12 via mXylylene) | < 10 |
| CC(=O)N[C@H](C(=O)N[C@@H](CCCNC(=N)N)C(=O)N[C@H]1CSCc2cccc(c2)CSC[C@@H](C(N)=O)NC(=O)[C@H](CO)NC(=O)[C@H](Cc2c[nH]c3ccccc23)NC(=O)[C@H]([C@@H](C)O)NC(=O)[C@H](CC(C)C)NC(=O)[C@H](Cc2c[nH]c3ccccc23)NC(=O)[C@H](CC(=O)O)NC(=O)[C@H]2CCCN2C(=O)[C@H](CCC(=O)O)NC1=O)C(C)C [3BP-3588] (Ac-VRCE[dP]DWLTWSC-NH2; linker 3-12 via mXylylene) | < 10 |
| CC(=O)N[C@H](C(=O)N[C@@H](Cc1ccc(O)cc1)C(=O)N[C@H]1CSCc2cccc(c2)CSC[C@@H](C(N)=O)NC(=O)[C@H](CCC(=O)NCCCNC(=O)COCCOCCNC(=O)CN2CCN(CC(=O)O)CCN(CC(=O)O)CCN(CC(=O)O)CC2)NC(=O)[C@H](Cc2c[nH]c3ccccc23)NC(=O)[C@H]([C@@H](C)O)NC(=O)[C@H](CC(C)C)NC(=O)[C@H](Cc2c[nH]c3ccccc23)NC(=O)[C@H](CC(=O)O)NC(=O)[C@H]2CCCN2C(=O)[C@H](CCC(=O)O)NC1=O)C(C)C [3BP-3479] (Ac-VYCE[dP]DWLTWE(NH(CH2)3NH(O2Oc(DOTA)))C-NH2; linker 3-12 via mXylylene) | < 10 |
| CC(=O)N[C@H](C(=O)N[C@@H](Cc1ccc(O)cc1)C(=O)N[C@H]1CSCc2cccc(c2)CSC[C@@H](C(N)=O)NC(=O)[C@H](CCC(N)=O)NC(=O)[C@H](Cc2c[nH]c3ccc(Cl)cc23)NC(=O)[C@H]([C@@H](C)O)NC(=O)[C@H](CC(C)C)NC(=O)[C@H](Cc2c[nH]c3ccccc23)NC(=O)[C@H](CC(=O)O)NC(=O)CN(C)C(=O)[C@H](CCC(=O)O)NC1=O)C(C)C [3BP-3312] (Ac-VYCE[Sar]DWLT[Trp(5-Cl)]QC-NH2; linker 3-12 via mXylylene) | 100 to 794 |
| CC(C)CC(=O)N[C@@H](CC(=O)O)C(=O)N[C@H]1CSCc2cccc(c2)CSC[C@@H](C(N)=O)NC(=O)[C@H](CO)NC(=O)[C@H](Cc2c[nH]c3ccccc23)NC(=O)[C@H]([C@@H](C)O)NC(=O)[C@H](CC(C)C)NC(=O)[C@H](Cc2c[nH]c3ccccc23)NC(=O)[C@H](CC(=O)O)NC(=O)[C@H]2CCCN2C(=O)[C@H](CCC(=O)O)NC1=O [3BP-3727] (Isovaleryl-DCE[dP]DWLTWSC-NH2; linker 2-11 via mXylylene) | < 10 |
